{"source": "patent US8618094B2", "about": "“Fused substituted aminopyrrolidine derivative” (Daiichi Sankyo Company, Limited, priority 2007, dated 2013)", "key": {"mouse bone marrow": {"tested_on": "mouse bone marrow", "assay": "Mouse bone marrow micronucleus test after intravenous administration", "format": "in vivo", "text": "The compound represented by the formula 365 was confirmed to be positive for induction of micronuclei in a mouse bone marrow micronucleus test after intravenous administration."}, "P. aeruginosa PAO1": {"tested_on": "P. aeruginosa PAO1", "assay": "Antibacterial activity (MIC), standard method of the Japanese Society of Chemotherapy", "format": "cell-based", "conditions": "Pseudomonas aeruginosa", "description": "(§1) Antibacterial activity of the compounds of the present invention was measured in accordance with the standard method specified by the Japanese Society of Chemotherapy."}, "H. influenzae ATCC49247": {"tested_on": "H. influenzae ATCC49247", "assay": "Antibacterial activity (MIC), standard method of the Japanese Society of Chemotherapy", "format": "cell-based", "conditions": "Haemophilus influenzae; H. influenzae ATCC49247 (first half of Table 2); read-out: MIC, H. influenzae ATCC49247", "description": "as §1"}, "S. pneumoniae J24": {"tested_on": "S. pneumoniae J24", "assay": "Antibacterial activity (MIC), standard method of the Japanese Society of Chemotherapy", "format": "cell-based", "conditions": "Streptococcus pneumoniae", "description": "as §1"}, "S. pneumoniae 104835": {"tested_on": "S. pneumoniae 104835", "assay": "Antibacterial activity (MIC), standard method of the Japanese Society of Chemotherapy", "format": "cell-based", "conditions": "Streptococcus pneumoniae", "description": "as §1"}, "P. mirabilis 08103": {"tested_on": "P. mirabilis 08103", "assay": "Antibacterial activity (MIC), standard method of the Japanese Society of Chemotherapy", "format": "cell-based", "conditions": "Proteus mirabilis", "description": "as §1"}, "S. epidermidis 56500": {"tested_on": "S. epidermidis 56500", "assay": "Antibacterial activity (MIC), standard method of the Japanese Society of Chemotherapy", "format": "cell-based", "conditions": "Staphylococcus epidermidis", "description": "as §1"}, "[1]": {"tested_on": "M(B). Caterrhalis ATCC25238", "assay": "Antibacterial activity (MIC), standard method of the Japanese Society of Chemotherapy", "format": "cell-based", "conditions": "M(B). Caterrhalis ATCC25238 (first half of Table 2); read-out: MIC, M(B). Caterrhalis ATCC25238", "description": "as §1"}, "S. aureus 870307": {"tested_on": "S. aureus 870307", "assay": "Antibacterial activity (MIC), standard method of the Japanese Society of Chemotherapy", "format": "cell-based", "conditions": "Staphylococcus aureus", "description": "as §1"}, "S. marcescens 10100": {"tested_on": "S. marcescens 10100", "assay": "Antibacterial activity (MIC), standard method of the Japanese Society of Chemotherapy", "format": "cell-based", "conditions": "Serratia marcescens", "description": "as §1"}, "S. aureus FDA 209-P": {"tested_on": "S. aureus FDA 209-P", "assay": "Antibacterial activity (MIC), standard method of the Japanese Society of Chemotherapy", "format": "cell-based", "conditions": "Staphylococcus aureus, FDA209", "description": "as §1"}, "E. faecalis 19433": {"tested_on": "E. faecalis 19433", "assay": "Antibacterial activity (MIC), standard method of the Japanese Society of Chemotherapy", "format": "cell-based", "conditions": "Enterococcus faecalis", "description": "as §1"}, "K. pneumoniae TYPE 1": {"tested_on": "K. pneumoniae TYPE 1", "assay": "Antibacterial activity (MIC), standard method of the Japanese Society of Chemotherapy", "format": "cell-based", "conditions": "Klebsiella pneumoniae, TYPE1", "description": "as §1"}, "E. cloacae 03400": {"tested_on": "E. cloacae 03400", "assay": "Antibacterial activity (MIC), standard method of the Japanese Society of Chemotherapy", "format": "cell-based", "conditions": "Enterobacter cloacae", "description": "as §1"}, "E. coli NIHJ": {"tested_on": "E. coli NIHJ", "assay": "Antibacterial activity (MIC), standard method of the Japanese Society of Chemotherapy", "format": "cell-based", "conditions": "Escherichia coli", "description": "as §1"}, "[2]": {"tested_on": "S. pyogenes JCM5674(ATCC12344)", "assay": "Antibacterial activity (MIC), standard method of the Japanese Society of Chemotherapy", "format": "cell-based", "conditions": "Streptococcus pyogenes", "description": "as §1"}, "[3]": {"assay": "Mouse phototoxicity test after intravenous administration", "format": "in vivo"}}, "data": [{"smiles": "COc1c(N2C[C@@H]3CCC[C@]3(N)C2)c(F)cc2c(=O)c(C(=O)O)cn([C@@H]3C[C@@H]3F)c12", "note": "(single isomer, unassigned) [Example 11, 7-{(1R*,5S*)-1-Amino-3-azabicyclo[3.3.0]octan-3-yl}-6-fluoro-1-[(1R,2S)-2-fluorocyclopropyl]-8-methoxy-1,4-dihydro-4-oxoquinoline-3-carboxylic acid]", "values": [{"measurement": "induction of micronuclei", "setting": "mouse bone marrow", "result": "negative"}, {"measurement": "MIC", "setting": "P. aeruginosa PAO1", "result": 0.78, "unit": "µg/mL"}, {"measurement": "MIC", "setting": "H. influenzae ATCC49247", "result": 0.006, "unit": "µg/mL"}, {"measurement": "MIC", "setting": "S. pneumoniae J24", "result": 0.05, "unit": "µg/mL"}, {"measurement": "MIC", "setting": "S. pneumoniae 104835", "result": 0.39, "unit": "µg/mL"}, {"measurement": "MIC", "setting": "P. mirabilis 08103", "result": 0.05, "unit": "µg/mL"}, {"measurement": "MIC", "setting": "S. epidermidis 56500", "result": 0.05, "unit": "µg/mL"}, {"measurement": "MIC", "setting": "[1]", "result": 0.025, "unit": "µg/mL"}, {"measurement": "MIC", "setting": "S. aureus 870307", "result": 0.78, "unit": "µg/mL"}, {"measurement": "MIC", "setting": "S. marcescens 10100", "result": 0.1, "unit": "µg/mL"}, {"measurement": "MIC", "setting": "S. aureus FDA 209-P", "result": 0.012, "unit": "µg/mL"}, {"measurement": "MIC", "setting": "E. faecalis 19433", "result": 0.1, "unit": "µg/mL"}, {"measurement": "MIC", "setting": "K. pneumoniae TYPE 1", "result": 0.1, "unit": "µg/mL"}, {"measurement": "MIC", "setting": "E. cloacae 03400", "result": 0.012, "unit": "µg/mL"}, {"measurement": "MIC", "setting": "E. coli NIHJ", "result": 0.025, "unit": "µg/mL"}, {"measurement": "MIC", "setting": "[2]", "result": 0.025, "unit": "µg/mL"}, {"measurement": "melting point", "result": "169 to 172", "unit": "°C"}, {"measurement": "phototoxicity", "setting": "[3]", "result": "negative"}]}]}
